Measurements reported in BindingDB's records for doi:10.1038/nchembio753 (Stanford University School of Medicine, 2006).
pEC50: −log10 of the molar value.

Molecular target: Sonic hedgehog protein (Mus musculus, UniProt Q62226)
Test: Activation of Shh in mouse Shh Light2 cells after 30 hrs by luciferase reporter gene assay

Sonic hedgehog protein, sequence (Q62226 25-198 limits assumed): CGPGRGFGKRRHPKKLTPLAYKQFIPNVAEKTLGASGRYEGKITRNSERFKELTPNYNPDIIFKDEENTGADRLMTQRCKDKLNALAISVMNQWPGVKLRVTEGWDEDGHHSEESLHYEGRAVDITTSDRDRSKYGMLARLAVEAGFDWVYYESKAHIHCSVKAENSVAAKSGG

SMILES: c1ccc2c(Oc3nc(Nc4ccc(N5CCOCC5)cc4)c4ncn(C5CCCCC5)c4n3)cccc2c1 [Purmorphamine]
- pEC50: 6.00
